What was measured:
SAS cells = test: Cytotoxicity test (MTT test) on SAS cells; format: cell-based, human; settings: SAS cells treated 48 hours, MTT survival rate
Description: (§1) The human oral cancer cells used in the Examples SCC4 and SAS are cultivated in a Dulbecco's Modified Eagle's medium (DMEM) cell culture having 10% fetal bovine serum (FBS). The cells are cultivated in an environment having 5% carbon dioxide in 37 degree Celsius. When enough cells are cultivated, the subsequent analysis and tests are performed.
(§2) The MTT reagent (namely, 3-(4,5-dimethylthiazol)-2,5-diphenyltetrazoliumbromide) is a yellow dye. After the MTT reagents are reacted with succinatedehydrogenase-ubiquinone (SDH) in the mitochondrion and cytochrome C, water insoluble blue-purple crystals are formed. After the crystals are dissolved in DMSO solution, the cell survival condition may be determined by the absorbance of the solution at 570 nm, so that the survival ratio of the cells can be calculated.
(§3) DMEM cell culture without serum are provided for preparing MTT solution having a concentration of 5 milligrams per milliliter. […]
(§4) The SCC4 or SAS cells are planted in a 48-well plate (each having 1×10^4 cells). […] And then, the absorbance of the supernatant at 570 nm can be obtained by an enzyme-linked immunosorbent assay (ELISA) reader (model: VersaMax™ Microplate Reader, Molecular devices, Sunnyvale, USA).

SCC4 cells = test: Cytotoxicity test (MTT test) on SCC4 cells; format: cell-based, human; settings: SCC4 cells treated 48 hours, MTT survival rate
Description: as §1, §2, §3, §4

Row | Substance | IC50 for SAS cells (SAS cells) | IC50 for SCC4 cells (SCC4 cells)
1 | photosan | 1.75 microgram per milliliter | 2.4 microgram per milliliter
2 | pyropheophorbide-phosphatidic acid [pyro-PA] | 0.1 microgram per milliliter | 0.8 microgram per milliliter
